Target: Recombinant GMPPNP-loaded KRAS G12C (KRAS-G12C(ON)) / GST-RAF1 RBD (Homo sapiens, UniProt P01116, G12C)
Test: KRAS G12C RAF Disruption Assay (HTRF)
Assay type: biochemical
Conditions: GMPPNP-loaded KRAS G12C 5 nM, compound 20 min at room temperature, GST-RAF1 RBD 9 nM, HTRF signal; read-out: KRASG12C RAF Disruption Assay (IC50)
Description: Recombinant GST-RAF1 RBD (9 nM) was added, and the reaction mixture was incubated for 20 minutes. SA-Tb (0.25 nM) was added, and the reaction mixture was incubated for 3 hours. HTRF signal was measured (PerkinElmer Envision), the signal ratio (λem 520/λem 495) was calculated, and IC50 values were calculated from the dose-response curve.

Sequence of Recombinant GMPPNP-loaded KRAS G12C (KRAS-G12C(ON)) / GST-RAF1 RBD (P01116 1-188 isoform P01116-2 G12C): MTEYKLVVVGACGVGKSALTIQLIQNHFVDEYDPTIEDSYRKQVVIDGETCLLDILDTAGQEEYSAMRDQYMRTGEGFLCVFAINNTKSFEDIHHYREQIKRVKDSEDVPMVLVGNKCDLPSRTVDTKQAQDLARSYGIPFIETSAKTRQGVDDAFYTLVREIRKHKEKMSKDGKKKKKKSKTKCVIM

IC50 | SMILES
57000 nM | CN1CCC[C@H]1COc1nc2c(c(N3CCN(C(=O)C(F)=Cc4ccns4)[C@@H](CC#N)C3)n1)CCN(c1cccc3cccc(Cl)c13)C2 (racemic) [Example 9, 2-((S)-4-(7-(8-chloronaphthalen-1-yl)-2-(((S)-1-methylpyrrolidin-2-yl)methoxy)-5,6,7,8-tetrahydropyrido[3,4-d]pyrimidin-4-yl)-1-(2-fluoro-3-(isothiazol-5-yl)acryloyl)piperazin-2-yl)acetonitrile]
40300 nM | CN1CCC[C@H]1COc1nc2c(c(N3CCN(C(=O)/C(F)=C/c4cccnc4)[C@@H](CC#N)C3)n1)CCN(c1cccc3cccc(Cl)c13)C2 [Example 2, 2-((S)-4-(7-(8-chloronaphthalen-1-yl)-2-(((S)-1-methylpyrrolidin-2-yl)methoxy)-5,6,7,8-tetrahydropyrido[3,4-d]pyrimidin-4-yl)-1-((Z)-2-fluoro-3-(pyridin-3-yl)acryloyl)piperazin-2-yl)acetonitrile]
329 nM | CN1CCC[C@H]1COc1nc2c(c(N3CCN(C(=O)/C(F)=C/c4ccncc4)[C@@H](CC#N)C3)n1)CCN(c1cccc3cccc(Cl)c13)C2 [Example 3, 2-((S)-4-(7-(8-chloronaphthalen-1-yl)-2-(((S)-1-methylpyrrolidin-2-yl)methoxy)-5,6,7,8-tetrahydropyrido[3,4-d]pyrimidin-4-yl)-1-((Z)-2-fluoro-3-(pyridin-4-yl)acryloyl)piperazin-2-yl)acetonitrile]
103 nM | CN1CCC[C@H]1COc1nc2c(c(N3CCN(C(=O)/C(F)=C/c4ncccn4)[C@@H](CC#N)C3)n1)CCN(c1cccc3cccc(Cl)c13)C2 [Example 4, 2-((S)-4-(7-(8-chloronaphthalen-1-yl)-2-(((S)-1-methylpyrrolidin-2-yl)methoxy)-5,6,7,8-tetrahydropyrido[3,4-d]pyrimidin-4-yl)-1-((Z)-2-fluoro-3-(pyrimidin-2-yl)acryloyl)piperazin-2-yl)acetonitrile]
89 nM | CN1CCC[C@H]1COc1nc2c(c(N3CCN(C(=O)/C(F)=C/c4ncco4)[C@@H](CC#N)C3)n1)CCN(c1cccc3cccc(Cl)c13)C2 [Example 6, 2-((S)-4-(7-(8-chloronaphthalen-1-yl)-2-(((S)-1-methylpyrrolidin-2-yl)methoxy)-5,6,7,8-tetrahydropyrido[3,4-d]pyrimidin-4-yl)-1-((Z)-2-fluoro-3-(oxazol-2-yl)acryloyl)piperazin-2-yl)acetonitrile]
74 nM | N#CC[C@H]1CN(c2nc(OC[C@@]34CCCN3C[C@H](F)C4)nc3c2CCN(c2cccc4cccc(Cl)c24)C3)CCN1C(=O)/C(F)=C/c1ccccn1 [Example 7, 2-((S)-4-(7-(8-chloronaphthalen-1-yl)-2 (((2R,7aS)-2-fluorotetrahydro-1H-pyrrolizin-7a(5H)-yl)methoxy)-5,6,7,8-tetrahydropyrido[3,4-d]pyrimidin-4-yl)-1-((Z)-2-fluoro-3-(pyridin-2-yl)acryloyl)piperazin-2-yl)acetonitrile]
55 nM | N#CC[C@H]1CN(c2nc(OC[C@@]34CCCN3C[C@H](F)C4)nc3c2CCN(c2cccc4cccc(Cl)c24)C3)CCN1C(=O)/C(F)=C/c1nccs1 [Example 8, 2-((S)-4-(7-(8-chloronaphthalen-1-yl)-2 (((2R,7aS)-2-fluorotetrahydro-1H-pyrrolizin-7a(5H)-yl)methoxy)-5,6,7,8-tetrahydropyrido[3,4-d]pyrimidin-4-yl)-1-((Z)-2-fluoro-3-(thiazol-2-yl)acryloyl)piperazin-2-yl)acetonitrile]
24000 nM | CN1CCC[C@H]1COc1nc2c(c(N3CCN(C(=O)/C(F)=C/c4nccn4C)[C@@H](CC#N)C3)n1)CCN(c1cccc3cccc(Cl)c13)C2 [Example 10, 2-((S)-4-(7-(8-chloronaphthalen-1-yl)-2-(((S)-1-methylpyrrolidin-2-yl)methoxy)-5,6,7,8-tetrahydropyrido[3,4-d]pyrimidin-4-yl)-1-((Z)-2-fluoro-3-(1-methyl-1H-imidazol-2-yl)acryloyl)piperazin-2-yl)acetonitrile]
144 nM | Cc1cccc(/C=C(\F)C(=O)N2CCN(c3nc(OC[C@@H]4CCCN4C)nc4c3CCN(c3cccc5cccc(Cl)c35)C4)C[C@@H]2CC#N)n1 [Example 11, 2-((S)-4-(7-(8-chloronaphthalen-1-yl)-2-(((S)-1-methylpyrrolidin-2-yl)methoxy)-5,6,7,8-tetrahydropyrido[3,4-d]pyrimidin-4-yl)-1-((Z)-2-fluoro-3-(6-methylpyridin-2-yl)acryloyl)piperazin-2-yl)acetonitrile]
129 nM | Cc1ccnc(/C=C(\F)C(=O)N2CCN(c3nc(OC[C@@H]4CCCN4C)nc4c3CCN(c3cccc5cccc(Cl)c35)C4)C[C@@H]2CC#N)c1 [Example 12, 2-((S)-4-(7-(8-chloronaphthalen-1-yl)-2-(((S)-1-methylpyrrolidin-2-yl)methoxy)-5,6,7,8-tetrahydropyrido[3,4-d]pyrimidin-4-yl)-1-((Z)-2-fluoro-3-(4-methylpyridin-2-yl)acryloyl)piperazin-2-yl)acetonitrile]
192 nM | Cc1ccc(/C=C(\F)C(=O)N2CCN(c3nc(OC[C@@H]4CCCN4C)nc4c3CCN(c3cccc5cccc(Cl)c35)C4)C[C@@H]2CC#N)nc1 [Example 13, 2-((S)-4-(7-(8-chloronaphthalen-1-yl)-2-(((S)-1-methylpyrrolidin-2-yl)methoxy)-5,6,7,8-tetrahydropyrido[3,4-d]pyrimidin-4-yl)-1-((Z)-2-fluoro-3-(5-methylpyridin-2-yl)acryloyl)piperazin-2-yl)acetonitrile]
778 nM | Cc1cccnc1/C=C(\F)C(=O)N1CCN(c2nc(OC[C@@H]3CCCN3C)nc3c2CCN(c2cccc4cccc(Cl)c24)C3)C[C@@H]1CC#N [Example 14, 2-((S)-4-(7-(8-chloronaphthalen-1-yl)-2-(((S)-1-methylpyrrolidin-2-yl)methoxy)-5,6,7,8-tetrahydropyrido[3,4-d]pyrimidin-4-yl)-1-((Z)-2-fluoro-3-(3-methylpyridin-2-yl)acryloyl)piperazin-2-yl)acetonitrile]
7500 nM | C[C@H]1CN(C(=O)/C(F)=C/c2nccs2)CCN1c1nc(OC[C@@H]2CCCN2C)nc2c1CCN(c1cccc3cccc(Cl)c13)C2 [Example 15, (Z)-1-((S)-4-(7-(8-chloronaphthalen-1-yl)-2-(((S)-1-methylpyrrolidin-2-yl)methoxy)-5,6,7,8-tetrahydropyrido[3,4-d]pyrimidin-4-yl)-3-methylpiperazin-1-yl)-2-fluoro-3-(thiazol-2-yl)prop-2-en-1-one]
63700 nM | CN1CCC[C@H]1COc1nc2c(c(N3CCN(C(=O)/C(F)=C/c4ccon4)[C@@H](CC#N)C3)n1)CCN(c1cccc3cccc(Cl)c13)C2 [Example 16, 2-((S)-4-(7-(8-chloronaphthalen-1-yl)-2-(((S)-1-methylpyrrolidin-2-yl)methoxy)-5,6,7,8-tetrahydropyrido[3,4-d]pyrimidin-4-yl)-1-((Z)-2-fluoro-3-(isoxazol-3-yl)acryloyl)piperazin-2-yl)acetonitrile]
10500 nM | CN1CCC[C@H]1COc1nc2c(c(N3CCN(C(=O)/C(F)=C/c4ccno4)[C@@H](CC#N)C3)n1)CCN(c1cccc3cccc(Cl)c13)C2 [Example 17]
92600 nM | CN1CCC[C@H]1COc1nc2c(c(N3CCN(C(=O)/C(F)=C/c4cn(C)nn4)[C@@H](CC#N)C3)n1)CCN(c1cccc3cccc(Cl)c13)C2 [Example 18]
